Where two headings read alike, the source gives them in different places.
Experiments:
[1] = tested on: myeloma cell lines (RPMI-8226, U266, NCI-H929); format: cell-based, human
Protocol: Cell survival was assayed by exclusion of propidium iodide (PI) (10 mg/ml) by unfixed cells. Annexin V-FITC (Pharmingen) or 3,3′-dihexyloxacarbocyanine iodide (DiOC6(3)) (Molecular Probes) staining was analyzed together with PI to discriminate early apoptotic cells. Apoptotic cells were also measured as sub-G1 events among ethanol-fixed cells stained with […] PI. All cell samples were analyzed using a benchtop FACSCalibur® (Becton Dickinson, San Jose, Calif.) flow cytometer. Flow data were analyzed using MultiCycle AV software (Phoenix Flow Systems). For intracellular pH measurements, cell pellets were washed once and resuspended in 2 ml of HEPES-buffered medium (no phenol red and no serum). Carboxy-SNARF®-1 acetoxymethyl (AM) ester (Molecular Probes, 1 mM stock in DMSO, stored at −20° C.), a long wavelength fluorescent pH indicator, was added to a final concentration of 10 μM, and the cells were incubated for 30 min at 37° C. Following incubation with SNARF®-1 AM, cells were sedimented and the pellets were held on ice. Immediately before analysis, pellets were resuspended in Earle's balanced salt solution (experimental buffer) or high-[K^+] buffer containing nigericin (calibration samples).

[2] = tested on: TABX2S cells (over-expressing Bcl-xL); experiment: in vitro
Source text: (§1) Briefly, a DNA fragment encoding the full-length mouse Bcl-xL cDNA was isolated from the plasmid pBS-BCL-xL (Tzung et al., Am. J. Path. 150:1985-1995 (1997), incorporated herein by reference in its entirety) by digestion with the restriction endonuclease EcoRI. This EcoRI fragment was cloned into the EcoRI site of the mammalian expression vector pSFFV (Fuhlbrigge et al., Proc. Nat. Acad. Sci. USA 85:5649-5653 (1988)) in both sense and antisense orientations, to form expression plasmids pSFFV-Bc/-xL-WT(sense) or pSFFV-Bc/-xL(antisense), respectively. The tumorigenic murine hepatocyte cell line TAMH was transfected by lipofection (Lipofectamine, Life Technologies, Rockville, Md., according to the manufacturer's recommendations) with the plasmids pSFFV-neo (the control), pSFFV-Bc/-xL-WT(sense) or pSFFV-Bc/-xL(antisense). Characterization of and culture conditions for the cell lines have been previously published (Wu et al., Proc. Nat. Acad. Sci. USA 91:674-78 (1994); Wu et al., Cancer Res. 54:5964-5973 (1994)). Transfectants were selected for the acquisition of neomycin resistance by growing cells in the presence of 750 μg/ml of G418. Bulk transfectants were cloned by limiting dilution and individual clones were screened by immunoblot analysis to determine the level of Bcl-xL, protein expression as described below.
(§2) Selected transfectants were then tested for whole cell sensitivity to several apoptotic agents. Transfected cells were cultured to reach approximately 80% confluency prior to plating an equal number of cells from selected clones on 12-well tissue culture plates. The transplanted cells were treated with the following apoptotic agents: 5 μM doxorubicin for 48 hours; 5 μM cisplatin for 48 hours; or with 200 U/ml tumor necrosis factor (TNF) plus 1 μg/ml actinomycin D for 18 hours. Cell viability was determined by trypan blue dye exclusion. The percentage of viable cells was calculated by the number of viable cells (treated with a particular apoptogenic agent) divided by the number in the control group (untreated).
(§3) TABX2S cells and TABX1A cells were also examined for the effects of various mitochondrial inhibitors. […] Azide was diluted from an aqueous stock solution.

Bcl-xL(ΔC) WT = target: T1, Bcl-xL(ΔC) WT (Homo sapiens, UniProt Q07817); experiment: Pore assay, calcein release from large unilamellar vesicles; format: biochemical
T1 construct: inferred from pET22b(+) NdeI/XhoI cloning and nickel-NTA purification) (C); made in house; host or cells: Escherichia coli BL21(DE3) carrying pUB520
Protocol: Large unilamellar vesicles composed of 60% dioleoylphophatidylcholine and 40% dioleoylphosphatidylglycerol were prepared by the extrusion method of Mayer et al., supra. Lipid stocks, in chloroform, were mixed and dried under a stream of nitrogen gas. The lipid was resuspended by vortexing for 30 min in a solution of 40 mM calcein (Molecular Probes), 25 mM KCl, and 10 mM KOAc, pH 5.0. After 10 freeze-thaw cycles, the lipid suspension was extruded through two 0.1 μm pore diameter Nucleopore filters. Non-entrapped dye was removed by passage over a Sephadex G10 column (Amersham Biosciences). Lipid concentration was measured using the ammonium ferrothiocyanate method (Stewart, Anal. Biochem. 104:10-14, 1980).
For pore assays, recombinant truncated Bcl-2 family protein or mutant protein (Bcl-xL(ΔC)) (500 nM) was added to large unilamellar vesicles (60 μM lipid concentration) in 100 mM KCl, 10 mM KOAc, pH 5.0, and fluorescence measured (490 nm excitation, 520 nm emission) with a Fluoromax-3 spectrophotometer. Peptides of the BH3 domain were incubated with the Bcl-xL(ΔC) 5 min prior to mixing with liposomes. AA1 was added to liposomes 1 min before adding the Bcl-xL(ΔC) protein. Samples for kinetic assays were analyzed in a thermostatted cuvette at 37° C. with constant stirring. Dose responses were measured in black quartz microplates (Hellma) at room temperature. Calcein release was expressed as percentage of maximum release with detergent lysis (0.1% Triton X-100).

[3] = tested on: mitochondria from cells over-expressing Bcl-xL (TABX2S cells); experiment: JC-1 staining of isolated mitochondrial fractions; format: biochemical, murine; details: 2 μg/ml
Protocol: Briefly, at 15 and 30 minutes, 5×10^5 cells were washed, trypsinized and resuspended in 1 ml of growth media. Each sample was stained with 10 μg/ml of JC-1 prepared in DMSO. After 10 minutes of incubation at 37° C., cells were transferred to ice and analysis was performed using a FACScan flow cytometer (Becton Dickinson). The excitation wavelength was 488 nm whereas measurement was performed at 520 and 585 nm for green and red fluorescence, respectively. Green and red fluorescence were measured on FL1 and FL2 channels, respectively. A minimum of 10,000 cells per sample were analyzed. Comparisons were made based on the results of at least three experiments.
Isolated mitochondria were loaded with JC-1 prior to treatment, and mitochondrial labeling was determined using FACS. […] Antimycin A-treated mitochondria with high levels of Bcl-xL had lower levels of JC-1 staining than parallel samples treated with CCCP. Uncoupled mitochondria still retain a significant Donnan potential because of trapped anionic species and it is likely that antimycin-induced PT and/or swelling of mitochondria led to a further reduction of this residual potential.
As observed for the parent compound, antimycin A3, mitochondria with normal levels of Bcl-xL expression were not affected by the 2-methoxy analog.

Cellular O2 consumption = format: cell-based; details: compared to antimycin A3
[4] = target: T2, recombinant Bcl-2 (Bcl-2ΔC22) (Homo sapiens, UniProt P10415); experiment: Antimycin A3 fluorescence binding and competitive displacement assay; details: antimycin A3 2 μM, competitor 2 μM, Bcl-2 3 μM
T2 construct: poly-His (N); made in house
Protocol: In this assay, 0 to 5 μM antimycin A3 (Sigma Chemical Co., St. Louis, Mo.) was added to a physiological buffer (50 mM Tris-HCl pH 8.0, 0.2 M NaCl, 2 mM EDTA, 0.5% v/v glycerol) containing recombinant Bcl-2 or Bcl-xL protein under conditions that permitted antimycin A3 to bind to the BH3-binding domain of Bcl-2 or Bcl-xL, (22.5° C. on a Hitachi F-2500 fluorescence spectrofluorimeter equipped with a thermostatted cell holder). […] The excitation wavelength was 335 nm, and the maximum emission wavelength for antimycin A3 was 428 nm with a slit width of 10 nm. The samples were mixed in a quartz cuvette and checked for inner filter effect over the range of antimycin A3 for this study. […]
Recombinant human Bcl-2ΔC22 (a recombinant human […] lacking the C-terminal 22-amino acid residue membrane anchor sequence) and mouse Bcl-xLΔC20 (a murine Bcl-xL lacking the C terminal 20-amino acid residue membrane anchor sequence) fused with poly-His at the N-terminus were chromatographically purified to homogeneity. The concentrations of antimycin A3 and stock solutions of recombinant proteins were quantitated using an extinction coefficient of 7.24/mM/cm at 320 nm and by Bradford assay, respectively. […] For peptide displacement experiments, a solution of 2 μM antimycin A3 and 3 μM Bcl-2 was allowed to reach binding equilibrium at 4° C. prior to fluorescence measurements. […]

in vitro = details: mouse
Source text: as §1, §2, §3

[5] = Cell viability by trypan blue dye exclusion; details: mouse
Source text: as §1
as §2, with “(untreated). […]” for “(untreated).”

T2 sequence (P10415 1-217 limits assumed, stated change not applied): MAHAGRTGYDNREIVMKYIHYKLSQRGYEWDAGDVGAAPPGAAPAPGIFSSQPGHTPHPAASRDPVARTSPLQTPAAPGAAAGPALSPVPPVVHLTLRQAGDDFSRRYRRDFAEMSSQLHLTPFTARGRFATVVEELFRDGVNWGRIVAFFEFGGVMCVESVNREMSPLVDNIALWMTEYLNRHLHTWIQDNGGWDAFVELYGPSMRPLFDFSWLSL
T1 sequence (Q07817 1-211 limits assumed, stated change not applied): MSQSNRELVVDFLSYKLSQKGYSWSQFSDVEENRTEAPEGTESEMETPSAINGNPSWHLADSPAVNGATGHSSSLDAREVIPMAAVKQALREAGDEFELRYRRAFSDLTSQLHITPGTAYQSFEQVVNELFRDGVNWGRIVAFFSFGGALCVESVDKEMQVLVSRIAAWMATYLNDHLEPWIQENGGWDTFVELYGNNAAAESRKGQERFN

For `C=C(C)[C@H]1Cc2c(ccc3c2O[C@@H]2COc4cc(OC)c(OC)cc4[C@@H]2C3=O)O1` [rotenone], the cell killing ([1]; 0.5-2.5 mg/ml) was “none of the myeloma cell lines were killed” and the “difference in sensitivity of TABX2S and TABX1A cell lines” value (shortened to “difference in sensitivity”) [2] was “no significant differences”.

With `CC(C)C(C(=O)O)N1C(=O)/C(=C\c2ccc(Br)cc2)SC1=S` (centres unmarked) [BH3I-1] the “effect on Bcl-xL pore-forming activity (FIG. 3A)” value (Bcl-xL(ΔC) WT) was “no effect”.

With `CCCC[C@H]1C(=O)OC(C)C(NC(=O)c2cccc(NC=O)c2OC)C(=O)O[C@@H](C)C1OC(=O)CC(C)C` (some centres unmarked) [2-methoxy antimycin A3, antimycin A3 methyl ether] the “cytotoxicity for cells that over-express Bcl-xL versus control cells” value ([2]; TABX2S vs TAMH.neo and TABX1A) was “selective cytotoxicity”, the “mitochondrial depolarization (JC-1)” value [3] was “strongly depolarized” and the “effect on cellular O2 consumption” value (Cellular O2 consumption) was “negligible effect”. The “displacement of antimycin A3 from Bcl-2 (antimycin A3 fluorescence)” value [4] was “decreased exponentially”.

For `COc1cccc2c1C(=O)c1c(O)c3c(c(O)c1C2=O)C[C@@](O)(C(=O)CO)C[C@@H]3O[C@H]1C[C@H](N)[C@H](O)[C@H](C)O1` [doxorubicin], the viability at 5 µM (in vitro) was 88%, the viability at 48 h, 5 µM [5] was 50% and the viability at 48 h, 5 µM ([5]; TABX1A cells (TAMH hepatocyte line with Bcl-xL antisense)) was 20%.

For `CCCCC1C(=O)OC(C)C(NC(=O)c2cccc(NC=O)c2OCC(=O)c2ccccc2)C(=O)OC(C)C1OC(=O)CC(C)C` (centres unmarked) [phenacyl ether antimycin A3], the “displacement of antimycin A3 from Bcl-2 (antimycin A3 fluorescence)” value [4] was “did not displace”.

With `CC[C@H]1/C=C/C=C/C[C@@H](C)[C@H](O)[C@@](C)(O)C(=O)[C@@H](C)[C@H](O)[C@@H](C)C(=O)[C@@H](C)[C@H](O)[C@@H](C)/C=C/C(=O)O[C@@H]2[C@H](C)[C@H](CC1)O[C@]1(CC[C@H](C)[C@H](C[C@@H](C)O)O1)[C@H]2C` [oligomycin] the cell killing ([1]; 2-10 mg/ml) was “Only H929 cells were killed” and the “difference in sensitivity” value [2] was “no significant differences”.

For `CC(C)[C@@H]1NC(=O)[C@H](C)OC(=O)[C@@H](C(C)C)NC(=O)[C@@H](C(C)C)OC(=O)[C@H](C(C)C)NC(=O)[C@H](C)OC(=O)[C@@H](C(C)C)NC(=O)[C@@H](C(C)C)OC(=O)[C@H](C(C)C)NC(=O)[C@H](C)OC(=O)[C@@H](C(C)C)NC(=O)[C@@H](C(C)C)OC1=O` [valinomycin], the “difference in sensitivity” value [2] was “no significant differences”.

Source: patent US20100221709A1, “METHODS FOR IDENTIFYING AGENTS THAT MODULATE APOPTOSIS IN CELLS THAT OVER-EXPRESS A BCL-2 FAMILY MEMBER PROTEIN” (priority 2005, published 2010)
